ChEMBL document CHEMBL1130211, “Synthesis and anti-hepatitis B virus activity of 9-(2-deoxy-2-fluoro-beta-L-arabinofuranosyl) purine nucleosides” (J Med Chem, 1997)

Key:
Format in all cases: functional, cell-based
Details in all cases: Homo sapiens
[1] = system: HepG2; assay: compound was tested in vitro for anti HBV activity in HepG2 2.2.15 cells
[2] = system: HepG2; assay: The cytotoxicity against HepG2 2.2.15 cells expressed as IC50
[3] = system: HepG2; assay: The cytotoxicity against 2.2.15 cells expressed as IC50
[4] = system: CCRF-CEM; assay: The cytotoxicity against CEM cells

Compound | EC50 [1] [µM] | IC50 [2] [µM] | IC50 [3] [µM] | IC50 [4] [µM]
OC[C@@H]1O[C@H](n2cnc3cncnc32)[C@H](F)[C@H]1O | > 10 | > 200 |  | 
OC[C@@H]1O[C@H](n2cnc3c(S)ncnc32)[C@H](F)[C@H]1O | > 10 |  | > 200 | 
CN(C)c1ncnc2c1ncn2[C@H]1O[C@@H](CO)[C@H](O)[C@H]1F | > 10 | > 200 |  | 
CNc1ncnc2c1ncn2[C@H]1O[C@@H](CO)[C@H](O)[C@H]1F | > 10 | > 200 |  | 
Nc1nc(Cl)nc2c1ncn2[C@@H]1O[C@H](CO)[C@@H](O)[C@H]1F | > 10 |  | > 200 | 
OC[C@H]1O[C@@H](n2cnc3c(O)ncnc32)[C@H](F)[C@@H]1O | 8 |  | > 200 | > 100
Nc1nc(N)c2ncn([C@@H]3O[C@H](CO)[C@@H](O)[C@H]3F)c2n1 | > 10 |  | > 180 | 
OC[C@H]1O[C@@H](n2cnc3c(NC4CC4)ncnc32)[C@H](F)[C@@H]1O | > 10 | > 200 |  | 
Nc1ncnc2c1ncn2[C@@H]1O[C@H](CO)[C@@H](O)[C@H]1F [2'-BETA-FLUORO-2',3'-DEOXYADENOSINE] | 1.5 | > 200 |  | 90
Nc1nc(O)c2ncn([C@@H]3O[C@H](CO)[C@@H](O)[C@@H]3F)c2n1 [F-ARAG] | > 10 |  | > 200 | > 100
